Reference: patent US12102620B2, “Combination therapy for the treatment of mastocytosis” (Deciphera Pharmaceuticals, LLC, priority 2018, dated 2024)
“Also recorded” adds a separate entry of the source.

Key:
Type in all cases: cell-based
[1] = system: EV-transfected HMC1.2 mast cells; experiment: Colony outgrowth after drug removal, empty vector transfected cells; settings: all concentrations, 5 days after drug removal
From the text: (§1) Drug treatments were removed and colony outgrowth of viable cells was monitored after 5 or 13 additional days.
(§2) Drug treatments were removed and colony outgrowth of viable cells was monitored after 5 or 10 additional days.

[2] = system: N-ras G12D-transfected HMC1.2 cells; experiment: Colony outgrowth after drug removal, N-ras G12D transfected cells; settings: all concentrations, 5 days after drug removal
From the text: as §1, §2

[3] = system: HMC1.1 KIT V560G mast cell line; experiment: Cell proliferation, HMC1.1 KIT V560G mast cell line; settings: 72 h, read-out: IC50, inhibition of cell proliferation
Experimental: (§3) Assays were conducted in 96 well plates with 10,000 cells seeded per well.

[4] = system: HMC1.2 KIT V560G/D816V mast cell line; experiment: Cell proliferation, HMC1.2 KIT V560G/D816V mast cell line; settings: 72 h, read-out: IC50, inhibition of cell proliferation
Experimental: as §3

[5] = system: HMC1.2 mast cells (KIT D816V); experiment: Colony outgrowth in soft agar after drug removal; settings: all concentrations, 10 days treatment, 5 days after drug removal
From the text: Drug treatments were removed and colony outgrowth of viable cells was monitored after 5 additional days.

Question: Which “colony outgrowth, single agent” value [1] does the source give for `CCn1c(=O)c(-c2cc(NC(=O)Nc3ccccc3)c(F)cc2Br)cc2cnc(NC)cc21` [Compound A, 1-[4-bromo-5-[1-ethyl-7-(methylamino)-2-oxo-1,2-dihydro-1,6-naphthyridin-3-yl]-2-fluorophenyl]-3-phenylurea] here?
Answer: The value was “colony outgrowth at all concentrations; also recorded: eradication was not observed”.

Question: And the “colony outgrowth, single agent” value [2]?
Answer: Its value is “colony outgrowth at all concentrations; also recorded: eradication was not observed”.

Question: What does the source list for `CCn1c(=O)c(-c2cc(NC(=O)Nc3ccccc3)c(F)cc2Br)cc2cnc(N)cc21` [Compound B, 1-(5-(7-amino-l-ethyl-2-oxo-1,2-dihydro-1,6-naphthyridin-3-yl)-4-bromo-2-fluorophenyl)-3-phenylurea]?
Answer: IC50 [3]: 2.3 nM; IC50 [4]: 61 nM; colony outgrowth, single agent [5]: colony outgrowth at all concentrations; also recorded: eradication was not observed

Question: Which “colony outgrowth, single agent” value [5] does the source give for `Cn1cnc2c(F)c(Nc3ccc(Br)cc3F)c(C(=O)NOCCO)cc21` [binimetinib] here?
Answer: The value was “colony outgrowth at all concentrations; also recorded: eradication was not observed”.

Question: `O=C(c1ccc(F)c(F)c1Nc1ccc(I)cc1F)N1CC(O)([C@@H]2CCCCN2)C1` [cobimetinib, reference compound] was tested. Which “colony outgrowth, single agent” value [5] did it give?
Answer: The value was “colony outgrowth at all concentrations”.

Question: And the “colony outgrowth, single agent” value [1]?
Answer: The value was “colony outgrowth at all concentrations; also recorded: eradication was not observed”.

Question: And the “colony outgrowth, single agent” value [2]?
Answer: The value was “colony outgrowth at all concentrations; also recorded: eradication was not observed”.
